Where two headings read alike, the source gives them in different places.
What was measured:
Type in all cases: cell-based, human
[1] = test system: T-lymphocyte leukemia Molt3 cell line; experiment: Cell proliferation of Molt3, flow cytometric cell count; conditions: 96 hours
Method: (§1) Cell lines: Human leukemic cell lines were obtained from the American Type Culture Collection (ATCC, Rockville, Md., USA). They were cultured in Iscove's Modified Dulbecco's Medium (IMDM) supplemented with 10% heat inactivated fetal calf serum (FCS), 200 U/ml penicillin, 200 μg/ml streptomycin and 1 μg/ml amphotericin B. Cells were cultured in a 5% CO2-95% air fully humidified incubator. For effects on clonogenic output, 1000 cells/well were plated in duplicate in methylcellulose (0.9%), supplemented with 20% FCS for 14 days.
(§2) Cells were plated at 10000 per well in 200 μl IMDM medium and incubated with 0-50 μM of the novel compounds (Tab 8), by addition of drug directly to the culture medium and incubated at 37° C. for 96 hours (Tab 8). Absolute cell number was determined by addition of a known concentration Fluoresbrite microspheres (FITC) (Polysciences, Inc.). The absolute number of cells/well was calculated as: {(total number of beads added/well)/(number of beads measured)×(number of measured cells in the gate of interest)}. All analyses were performed with a FACScan (BD), using CELLQuest software (Becton Dickinson).
(§3) Response of the myeloid leukemia KG1 and T-lymphocyte leukemia Molt3 cell lines to the cytostatic effect of the novel compounds was determined using the above-mentioned standardized bead suspension that was used to determine the absolute cell number by flow cytometric (FCM) measurement. Cells were grown in the presence of increasing concentration of the novel compounds.

[2] = test system: myeloid leukemia KG1 cell line; experiment: Cell proliferation of KG1, flow cytometric cell count; conditions: for Recovery of cell number after wash-out: washed free after 6 hours of exposure, 7 days drug-free medium
Method: as §1, §2, §3
To determine reversibility of the effects of the novel compounds, cells were plated at 10000 per well and exposed to 0-50 μM of the compounds for the time indicated, followed by washing in phosphate-buffered saline (PBS) (Life Technologies) and reseeded into drug-free medium for 7 additional days. An identical set of cells was plated and exposed to the drugs for 7 additional days. After 7 days (168 hours), the relative cell number was assayed by flow cytometry.

[3] = test system: adult bone marrow CD34+CD38− cells; experiment: Pre-CFU assay; conditions: for IC50: 14-day liquid culture, secondary methylcellulose culture
Excerpt: Adult Bone Marrow Cells (ABM): Bone marrow samples were obtained by sternal puncture from hematologically normal donors undergoing cardiac surgery, after obtaining informed consent according to the ethical regulations of the University of Antwerp. Cells were collected in IMDM supplemented with 10% FCS and 100 U/ml heparin and separated by density gradient as mentioned for PBMC. After washing, cells were resuspended in IMDM 10% FCS and were sorted on a FACStar (Becton Dickinson, Erembodegem, Belgium).
Cell sorting: ABM cells (10^7 cells/ml) were incubated with 43A1 hybridoma supernatant at a 1/10 dilution for 20 minutes at 4° C. The supernatant of the 43A1 hybridoma (immunoglobulin IgG3) was kindly donated by Dr. H. J. Bühring (University of Tübingen, Germany) and was used as a source of anti-CD34 antibodies. After washing twice in IMDM, the cells were incubated with FITC-conjugated rabbit anti-mouse IgG (1/40 dilution) for 20 min at 4° C. After washing twice cells were incubated for 10 minutes with 5 μg mouse Ig and for 15 minutes with anti-CD38-PE (20 μl/10^6 cells). After washing twice in IMDM, the cells were sorted on a FACStarPlus cell sorter equipped with an water-cooled argon ion laser (INNOVA Enterprise Ion Laser) with multiple wave length outputs including UV (488 nm). Cells with low-to-medium forward and low side scatter, highly positive green (CD34) fluorescence, and an orange (CD38) fluorescence signal lower than the mean fluorescence of cells labeled with an irrelevant isotype-matched control antibody were retained as CD34^+CD38^− cells; cells with an orange fluorescence above this threshold were retained as CD34^+CD38^+ cells.
Pre-CFU: Pre-CFU assays were initiated by performing liquid cultures of CD34^+CD38^− in duplicate in 96-well flat-bottomed plates in IMDM/10% FCS, 1% bovine serum albumin (BSA), and different combinations of the following cytokines: 100 U/ml IL-1, 200 U/ml IL-6, 30 U/ml IL-3 and 100 ng/ml stel cell factor (SCF). Pre-CFU cultures were initiated with 500 CD34^+CD38^− cells/well (200 μl). After 14 days of culture at 37° C. in 7.5% O2 and 5% CO2 in a fully humidified incubator, the number of cells in each well was counted. Following this the cells were harvested, washed three times in IMDM/10% FCS, and plated in duplicate at 500 cells/well (1000 μl) in secondary methylcellulose CFU cultures as described for CFU assays.
Pre-CFU were cultured starting from adult bone marrow CD34^+CD38^− cells, that had been isolated using the FCM cell sorter. Novel compounds were added at different concentrations to the primary 14-day liquid culture. IC50 was calculated from dose-response curves from total clonogenic output after secondary methylcellulose culture (Tab. 8).

KG1 = experiment: Clonogenic output of KG1 in methylcellulose; conditions: 25 μM
Method: as §1
Clonogenic output of KG1 was tested in methylcellulose with 25 μM of some of the novel compounds. Colony output vs. control cultures without novel compound, was 16% for 26, 19% for […] and 0% for 201.

[4] = continuous exposure, 7 days (168 hours), read-out: IC50, KG1 cells exposed continuously

Row | IC50 [1] [µM] | IC50 ([2]; 96 hours, read-out: KG1 IC50) [µM] | IC50 [2, 4] [µM] | IC50 [3] [µM] | IC50 ([1]; Homo sapiens, MOLT-3) [µM] | IC50 ([2]; Homo sapiens, KG-1, 96 hours, read-out: KG1 IC50) [µM] | IC50 ([3]; Homo sapiens, 336 h) [µM] | Molecule | Recovery of cell number after wash-out [2] | Colony output vs. control cultures (KG1) [%] | Activity on pre-CFU compared with CFU [3]
1 | 8 ± 1.5 | 3 ± 1 | 7 ± 2 | > 25 | – | – | – | 5-(3-hydroxypropylamino)-7-[(R,S)-(1-phenyl-2-hydroxyethyl)amino-3-isopropylpyrazolo[4,3-d]pyrimidine [Compound 172] | substantial recovery of cell number | – | –
2 | 12 ± 1.8 | 12 ± 1.3 | 16 ± 1.3 | 1.5 | – | – | – | 5-(3-aminoethylamino)-7-(3,4-dihydroxybenzyl)amino-3-isopropylpyrazolo[4,3-d]pyrimidine [Compound 201] | substantial recovery of cell number | 0 | –
3 | 9.3 ± 0.3 | 6 ± 1 | 16 ± 1.7 | 10 | – | – | – | 5-(3-aminopropylamino)-7-benzylamino-3-isopropylpyrazolo[4,3-d]pyrimidine [Compound 17] | substantial recovery of cell number | – | –
4 | 17 ± 2.9 | 13 ± 0.2 | – | 86 | – | – | – | 5-(methylthio)-7-[N-(3,4-dihydroxybenzyl-N-methyl]amino-3 isopropylpyrazolo[4,3-d]pyrimidine [Compound 26] | – | 16 | more active on pre-CFU than on CFU
5 | – | – | – | – | 8 ± 0.4 | 5 ± 0.3 | > 25 | CCCCCCNc1nc(NC(CO)c2ccccc2)c2[nH]nc(C(C)C)c2n1 (stereo not shown) [Compound 98, 5-(hexylamino)-7-(1-phenyl-2-hydroxyethylamino)-3-isopropylpyrazolo[4,3-d]pyrimidine] | – | 19 | –
